Experimental findings from ChEMBL document CHEMBL3132769, “Fragment growing to retain or alter the selectivity of anchored kinase hinge-binding fragments” (Medchemcomm, 2014) are described below.

As a reminder, the inhibition is the relative decrease from the control value, in per cent.

Test [1] is filed under the species Homo sapiens. As to the kind of experiment: Inhibition of human full length PKA expressed in baculovirus assessed as substrate phosphorylation using fluorescence-labelled peptides as substrate at 2 uM after 90 mins by microfluidic peptide phosphorylation assay.
Test [2] addresses Fibroblast growth factor receptor 4 (Homo sapiens) (UniProt P22455). Kind of test: Inhibition of human FGFR4 catalytic domain expressed in baculovirus assessed as substrate phosphorylation using fluorescence-labelled peptides as substrate at 0.2 uM after 90 mins by microfluidic peptide phosphorylation assay.
Test [3] concerns the target Protein kinase C alpha type (Homo sapiens) (UniProt P17252). Kind of test: Inhibition of human truncated PKC alpha expressed in baculovirus assessed as substrate phosphorylation using fluorescence-labelled peptides as substrate at 0.2 uM after 90 mins by microfluidic peptide phosphorylation assay.
For test [4], the target named is Protein kinase C delta type (Homo sapiens) (UniProt Q05655). As to the kind of experiment: Inhibition of human truncated PKC delta expressed in baculovirus assessed as substrate phosphorylation using fluorescence-labelled peptides as substrate at 0.2 uM after 90 mins by microfluidic peptide phosphorylation assay.
In test [5] the target is Glycogen synthase kinase-3 beta (Homo sapiens) (UniProt P49841). As to the kind of experiment: Inhibition of human full length GSK-3 beta expressed in baculovirus assessed as substrate phosphorylation using fluorescence-labelled peptides as substrate at 0.06 uM after 90 mins by microfluidic peptide phosphorylation assay.
The target in test [6] is Tyrosine-protein kinase Fyn (Homo sapiens) (UniProt P06241). As to the kind of experiment: Inhibition of human full length FYN expressed in baculovirus assessed as substrate phosphorylation using fluorescence-labelled peptides as substrate at 8 uM after 90 mins by microfluidic peptide phosphorylation assay.
Test [7] concerns Tyrosine-protein kinase ABL1 (Homo sapiens), P00519 [T315I]. Kind of test: Inhibition of human truncated ABL T315I mutant expressed in baculovirus assessed as substrate phosphorylation using fluorescence-labelled peptides as substrate at 8 uM after 90 mins by microfluidic peptide phosphorylation assay.
For test [8], the species on record is Homo sapiens. As to the kind of experiment: Inhibition of human P70S6K catalytic domain expressed in baculovirus assessed as substrate phosphorylation using fluorescence-labelled peptides as substrate at 8 uM after 90 mins by microfluidic peptide phosphorylation assay.
Test [9] deals with T1, Interleukin-1 receptor-associated kinase 4 (Homo sapiens) (UniProt Q9NWZ3).
T1 sequence (whole entry): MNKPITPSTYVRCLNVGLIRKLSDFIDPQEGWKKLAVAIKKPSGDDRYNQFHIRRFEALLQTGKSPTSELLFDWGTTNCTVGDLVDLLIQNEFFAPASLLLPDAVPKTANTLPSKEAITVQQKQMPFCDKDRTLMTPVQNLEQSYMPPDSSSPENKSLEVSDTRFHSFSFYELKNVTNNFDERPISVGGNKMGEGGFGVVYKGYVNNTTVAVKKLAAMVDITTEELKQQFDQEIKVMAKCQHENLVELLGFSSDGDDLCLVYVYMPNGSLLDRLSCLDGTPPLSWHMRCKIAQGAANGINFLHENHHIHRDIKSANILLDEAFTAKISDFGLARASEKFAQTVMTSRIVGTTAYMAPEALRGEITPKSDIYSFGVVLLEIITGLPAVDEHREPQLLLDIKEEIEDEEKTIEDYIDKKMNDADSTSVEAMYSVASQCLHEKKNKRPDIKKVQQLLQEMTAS
Kind of test: Inhibition of human IRAK4 catalytic domain expressed in baculovirus assessed as substrate phosphorylation using fluorescence-labelled peptides as substrate at 8 uM after 90 mins by microfluidic peptide phosphorylation assay.

The target in test [10] is T2, Aurora kinase A (Homo sapiens) (UniProt O14965).
T2 sequence (whole entry): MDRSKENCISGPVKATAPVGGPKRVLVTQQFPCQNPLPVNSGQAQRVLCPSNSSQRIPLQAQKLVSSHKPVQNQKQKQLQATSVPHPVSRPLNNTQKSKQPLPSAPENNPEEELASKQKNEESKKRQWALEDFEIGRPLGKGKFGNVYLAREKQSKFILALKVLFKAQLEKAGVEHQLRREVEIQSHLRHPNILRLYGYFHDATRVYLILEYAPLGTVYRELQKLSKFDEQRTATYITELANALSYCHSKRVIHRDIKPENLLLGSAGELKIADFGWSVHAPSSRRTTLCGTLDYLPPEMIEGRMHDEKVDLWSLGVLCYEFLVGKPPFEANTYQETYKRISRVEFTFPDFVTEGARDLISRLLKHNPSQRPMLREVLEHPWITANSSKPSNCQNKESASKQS
As to the kind of experiment: Inhibition of human full length AurA expressed in baculovirus assessed as substrate phosphorylation using fluorescence-labelled peptides as substrate at 70 uM after 90 mins by microfluidic peptide phosphorylation assay.

The target of test [11] is T3, MAP kinase-activated protein kinase 5 (Homo sapiens) (UniProt Q8IW41).
T3 sequence (whole entry): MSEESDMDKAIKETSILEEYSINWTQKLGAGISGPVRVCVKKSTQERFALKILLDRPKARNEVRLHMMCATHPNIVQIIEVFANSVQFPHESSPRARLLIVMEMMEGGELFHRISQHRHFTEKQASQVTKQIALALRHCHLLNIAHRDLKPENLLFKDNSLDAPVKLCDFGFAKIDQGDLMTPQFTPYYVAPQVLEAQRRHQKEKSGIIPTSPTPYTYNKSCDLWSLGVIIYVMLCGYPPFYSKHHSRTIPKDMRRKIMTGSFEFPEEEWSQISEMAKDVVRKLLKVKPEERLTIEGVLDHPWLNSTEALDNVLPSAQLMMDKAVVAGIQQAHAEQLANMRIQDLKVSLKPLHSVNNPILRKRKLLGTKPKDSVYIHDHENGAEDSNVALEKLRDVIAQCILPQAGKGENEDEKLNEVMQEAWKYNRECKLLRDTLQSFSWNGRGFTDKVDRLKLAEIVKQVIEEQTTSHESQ
As to the kind of experiment: Inhibition of human full length PRAK expressed in baculovirus assessed as substrate phosphorylation using fluorescence-labelled peptides as substrate at […] after 90 mins by microfluidic peptide phosphorylation assay.

The target of test [12] is Tyrosine-protein kinase Lck (Homo sapiens) (UniProt P06239). As to the kind of experiment: Inhibition of human full length LCK expressed in baculovirus assessed as substrate phosphorylation using fluorescence-labelled peptides as substrate at […] after 90 mins by microfluidic peptide phosphorylation assay.
Test [13] deals with Protein kinase C beta type (Homo sapiens) (UniProt P05771). Kind of test: Inhibition of human truncated PKC beta1 expressed in baculovirus assessed as substrate phosphorylation using fluorescence-labelled peptides as substrate at 420 uM after 90 mins by microfluidic peptide phosphorylation assay.
Chain of Protein kinase C beta type (Homo sapiens) (P05771 2-671 limits assumed): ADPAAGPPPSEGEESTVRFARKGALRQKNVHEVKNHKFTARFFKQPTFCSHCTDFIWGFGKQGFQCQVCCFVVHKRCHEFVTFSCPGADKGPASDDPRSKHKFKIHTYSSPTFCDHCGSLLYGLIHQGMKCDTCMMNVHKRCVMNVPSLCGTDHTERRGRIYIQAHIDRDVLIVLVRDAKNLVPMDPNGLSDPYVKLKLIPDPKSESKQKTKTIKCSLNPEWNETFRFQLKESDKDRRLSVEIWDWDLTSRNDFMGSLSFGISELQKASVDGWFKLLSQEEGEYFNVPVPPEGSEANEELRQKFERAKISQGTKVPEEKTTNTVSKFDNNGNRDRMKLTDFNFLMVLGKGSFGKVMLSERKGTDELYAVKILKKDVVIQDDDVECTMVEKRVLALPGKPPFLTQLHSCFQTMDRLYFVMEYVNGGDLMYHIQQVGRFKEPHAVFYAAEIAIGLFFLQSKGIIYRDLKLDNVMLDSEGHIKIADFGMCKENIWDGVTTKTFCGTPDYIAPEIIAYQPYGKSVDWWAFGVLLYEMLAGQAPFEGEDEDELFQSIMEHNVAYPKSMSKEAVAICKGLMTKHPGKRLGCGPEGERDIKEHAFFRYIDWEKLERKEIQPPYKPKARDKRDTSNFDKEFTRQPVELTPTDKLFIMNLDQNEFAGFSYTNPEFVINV

Chain of Tyrosine-protein kinase Lck (Homo sapiens) (P06239 2-509 limits assumed): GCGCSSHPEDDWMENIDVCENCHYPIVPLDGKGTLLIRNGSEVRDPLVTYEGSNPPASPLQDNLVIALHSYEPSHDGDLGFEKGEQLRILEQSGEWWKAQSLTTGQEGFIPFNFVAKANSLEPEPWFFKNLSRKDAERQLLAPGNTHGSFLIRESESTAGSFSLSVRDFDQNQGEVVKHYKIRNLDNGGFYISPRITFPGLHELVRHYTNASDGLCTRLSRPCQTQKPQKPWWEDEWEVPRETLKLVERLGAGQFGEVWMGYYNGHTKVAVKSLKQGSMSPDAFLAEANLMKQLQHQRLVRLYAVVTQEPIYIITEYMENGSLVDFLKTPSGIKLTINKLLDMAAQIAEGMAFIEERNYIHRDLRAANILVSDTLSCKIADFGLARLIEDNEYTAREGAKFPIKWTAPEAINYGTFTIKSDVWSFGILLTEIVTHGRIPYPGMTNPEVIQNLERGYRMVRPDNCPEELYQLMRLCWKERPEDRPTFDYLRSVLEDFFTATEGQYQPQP
Chain of Tyrosine-protein kinase Fyn (Homo sapiens) (P06241 2-537 limits assumed): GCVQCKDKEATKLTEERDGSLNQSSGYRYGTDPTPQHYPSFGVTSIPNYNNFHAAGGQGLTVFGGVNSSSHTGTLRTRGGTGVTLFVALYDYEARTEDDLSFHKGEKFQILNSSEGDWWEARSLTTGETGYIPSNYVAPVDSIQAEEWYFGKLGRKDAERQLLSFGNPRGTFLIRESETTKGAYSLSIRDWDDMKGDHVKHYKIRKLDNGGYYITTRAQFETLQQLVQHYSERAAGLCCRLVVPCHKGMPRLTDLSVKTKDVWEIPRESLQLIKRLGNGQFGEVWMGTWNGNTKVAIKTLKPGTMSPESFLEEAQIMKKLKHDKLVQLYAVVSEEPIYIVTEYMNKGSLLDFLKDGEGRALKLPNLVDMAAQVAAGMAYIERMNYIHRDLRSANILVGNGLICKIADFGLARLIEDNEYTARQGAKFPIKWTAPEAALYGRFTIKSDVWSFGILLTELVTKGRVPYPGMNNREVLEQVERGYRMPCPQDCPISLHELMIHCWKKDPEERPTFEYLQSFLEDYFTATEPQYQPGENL
Chain of Protein kinase C delta type (Homo sapiens) (Q05655 whole entry, looked up, the tested form may be a part): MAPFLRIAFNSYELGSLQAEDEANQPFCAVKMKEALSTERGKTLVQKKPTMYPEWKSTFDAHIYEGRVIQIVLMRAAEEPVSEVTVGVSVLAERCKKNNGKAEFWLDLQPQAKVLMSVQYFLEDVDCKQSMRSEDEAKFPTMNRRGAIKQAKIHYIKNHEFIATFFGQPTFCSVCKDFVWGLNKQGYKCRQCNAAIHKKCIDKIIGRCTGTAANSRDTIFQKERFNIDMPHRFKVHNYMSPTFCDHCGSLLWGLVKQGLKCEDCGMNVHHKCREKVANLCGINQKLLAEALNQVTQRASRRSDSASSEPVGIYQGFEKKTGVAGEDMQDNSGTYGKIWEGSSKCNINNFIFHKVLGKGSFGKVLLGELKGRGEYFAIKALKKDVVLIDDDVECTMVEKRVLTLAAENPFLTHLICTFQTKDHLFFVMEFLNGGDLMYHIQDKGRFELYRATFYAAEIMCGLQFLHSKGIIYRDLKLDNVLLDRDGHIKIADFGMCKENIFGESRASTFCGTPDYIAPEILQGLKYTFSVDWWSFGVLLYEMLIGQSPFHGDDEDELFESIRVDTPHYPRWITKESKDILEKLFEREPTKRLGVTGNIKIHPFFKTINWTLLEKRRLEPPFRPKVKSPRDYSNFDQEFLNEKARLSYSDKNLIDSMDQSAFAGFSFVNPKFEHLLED
Chain of Glycogen synthase kinase-3 beta (Homo sapiens) (P49841 whole entry, looked up): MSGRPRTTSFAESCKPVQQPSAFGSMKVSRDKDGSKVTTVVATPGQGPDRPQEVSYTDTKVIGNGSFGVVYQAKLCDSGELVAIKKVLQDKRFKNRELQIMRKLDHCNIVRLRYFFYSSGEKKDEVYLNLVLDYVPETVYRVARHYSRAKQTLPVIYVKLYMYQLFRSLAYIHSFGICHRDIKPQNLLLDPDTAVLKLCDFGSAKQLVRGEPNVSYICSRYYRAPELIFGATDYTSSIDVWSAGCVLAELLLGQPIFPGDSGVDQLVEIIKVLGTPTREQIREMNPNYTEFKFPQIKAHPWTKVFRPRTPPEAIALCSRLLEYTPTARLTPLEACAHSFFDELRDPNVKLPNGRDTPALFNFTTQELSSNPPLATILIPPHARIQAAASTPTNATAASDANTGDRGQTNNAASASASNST
Chain of Fibroblast growth factor receptor 4 (Homo sapiens) (P22455 22-802 limits assumed): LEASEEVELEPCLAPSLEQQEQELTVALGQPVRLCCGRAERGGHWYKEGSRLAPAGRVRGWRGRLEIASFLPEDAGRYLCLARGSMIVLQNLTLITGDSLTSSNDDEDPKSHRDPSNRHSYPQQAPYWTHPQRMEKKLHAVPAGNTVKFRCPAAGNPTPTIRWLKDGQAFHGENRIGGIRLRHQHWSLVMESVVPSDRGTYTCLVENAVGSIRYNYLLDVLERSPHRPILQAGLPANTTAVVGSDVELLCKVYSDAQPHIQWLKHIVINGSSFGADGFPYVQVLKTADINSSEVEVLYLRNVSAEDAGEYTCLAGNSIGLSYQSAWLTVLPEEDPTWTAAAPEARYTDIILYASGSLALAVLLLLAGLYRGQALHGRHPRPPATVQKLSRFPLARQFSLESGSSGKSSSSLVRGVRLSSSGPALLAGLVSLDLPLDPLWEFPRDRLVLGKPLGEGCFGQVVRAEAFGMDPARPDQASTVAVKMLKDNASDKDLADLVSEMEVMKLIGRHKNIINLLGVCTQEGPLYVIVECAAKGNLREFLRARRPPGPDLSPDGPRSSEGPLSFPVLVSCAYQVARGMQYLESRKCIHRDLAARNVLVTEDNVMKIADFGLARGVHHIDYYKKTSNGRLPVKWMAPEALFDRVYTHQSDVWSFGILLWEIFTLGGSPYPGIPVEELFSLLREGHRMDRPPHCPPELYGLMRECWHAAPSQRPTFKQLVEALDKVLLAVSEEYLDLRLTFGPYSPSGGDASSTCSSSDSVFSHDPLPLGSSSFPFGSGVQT

For the compound `NC1CCN(c2ncnc3[nH]ccc23)CC1`, the inhibition in the test listed under Homo sapiens [1] was 21%. Turning to `Clc1ccc(C2(c3ccc(-c4ncnc5[nH]cnc45)cc3)CCNCC2)cc1`, the inhibition came to 1.5% in [2], 77.5% in test [3] and 37.5% in test [4]. Regarding `NC1(Cc2ccc(Cl)cc2)CCN(c2ncnc3[nH]ccc23)CC1`, in test [5], the inhibition is 0%. On to `NCC1CCN(c2ncnc3[nH]ccc23)CC1`, for which the inhibition in [6] stood at 1%; in test [7], 53%; in the test listed under Homo sapiens [8], 68%; in test [9], 25.5%. Consider `CNCc1ccc(-c2ncnc3[nH]cnc23)cc1`, for which the inhibition in test [10] was 68%. Consider `COC(=O)c1cnc(Nc2cnc(C#N)cn2)cc1NCC1CCNCC1`, for which the inhibition in [11] was 4%; in test [12], 5.5%. On to `c1nc(N2CCOCC2)c2nc[nH]c2n1`, for which the inhibition in test [13] was determined as 70%.
